# Results: PubChem BioAssay (NCI)
#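 Protocol summary: plate cells (96-well), add compound at 5 concentrations, incubate 48 h, interpolate endpoints linearly. GI50 marks 50% less growth. The concentration for full growth arrest is given as TGI.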
# Columns and labels:
# Experiment in all cases: NCI-60 cell line screen, 48 h
# M14 melanoma = tested on: M14 melanoma
# HOP-92 NSCLC = tested on: HOP-92 NSCLC
# CAKI-1 renal = tested on: CAKI-1 renal
# RPMI-8226 leukemia = tested on: RPMI-8226 leukemia
# NCI-H522 lung = tested on: NCI-H522 lung
# TK-10 renal = tested on: TK-10 renal
# SK-MEL-5 melanoma = tested on: SK-MEL-5 melanoma
# MDA-MB-231 breast = tested on: MDA-MB-231 breast
# OVCAR-4 ovarian = tested on: OVCAR-4 ovarian
# SNB-19 CNS = tested on: SNB-19 CNS
# HCT-15 colon = tested on: HCT-15 colon
# U251 CNS = tested on: U251 CNS
# SR leukemia = tested on: SR leukemia
# IGROV1 ovarian = tested on: IGROV1 ovarian
# MOLT-4 leukemia = tested on: MOLT-4 leukemia
# DU-145 prostate = tested on: DU-145 prostate
# HT29 colon = tested on: HT29 colon
# SF-295 CNS = tested on: SF-295 CNS
# T-47D breast = tested on: T-47D breast
# SF-539 CNS = tested on: SF-539 CNS
# ACHN renal = tested on: ACHN renal
# HOP-62 NSCLC = tested on: HOP-62 NSCLC
# A498 renal = tested on: A498 renal
# MALME-3M melanoma = tested on: MALME-3M melanoma
# HCT-116 colon = tested on: HCT-116 colon
# SN12C renal = tested on: SN12C renal
# OVCAR-3 ovarian = tested on: OVCAR-3 ovarian
# RXF 393 renal = tested on: RXF 393 renal
# NCI-H226 lung = tested on: NCI-H226 lung
# OVCAR-8 ovarian = tested on: OVCAR-8 ovarian
# HL-60(TB) leukemia = tested on: HL-60(TB) leukemia
# MCF7 breast = tested on: MCF7 breast
# A549 NSCLC = tested on: A549 NSCLC
# NCI/ADR-RES ovarian = tested on: NCI/ADR-RES ovarian
# BT-549 breast = tested on: BT-549 breast
# MDA-MB-435 = tested on: MDA-MB-435
# SF-268 CNS = tested on: SF-268 CNS
# SK-MEL-2 melanoma = tested on: SK-MEL-2 melanoma
# LOX IMVI melanoma = tested on: LOX IMVI melanoma
# KM12 colon = tested on: KM12 colon
# NCI-H23 lung = tested on: NCI-H23 lung
# SNB-75 CNS = tested on: SNB-75 CNS
# UO-31 renal = tested on: UO-31 renal
# CCRF-CEM leukemia = tested on: CCRF-CEM leukemia
# 786-0 renal = tested on: 786-0 renal
# EKVX NSCLC = tested on: EKVX NSCLC
# MDA-MB-468 breast = tested on: MDA-MB-468 breast
# HS 578T breast = tested on: HS 578T breast
# OVCAR-5 ovarian = tested on: OVCAR-5 ovarian
# UACC-257 melanoma = tested on: UACC-257 melanoma
# K-562 leukemia = tested on: K-562 leukemia
# NCI-H460 lung = tested on: NCI-H460 lung
# COLO 205 colon = tested on: COLO 205 colon
# SK-OV-3 ovarian = tested on: SK-OV-3 ovarian
smiles,measurement,setting,value
COc1ccc2[nH]c(O)c(N=Nc3nc(-c4ccc(Cl)cc4)cs3)c2c1,GI50,M14 melanoma,1.99 µM
same,TGI,M14 melanoma,5.29 µM
same,GI50,HOP-92 NSCLC,1.92 µM
same,TGI,HOP-92 NSCLC,4.88 µM
same,GI50,CAKI-1 renal,6.7 µM
same,TGI,CAKI-1 renal,30.6 µM
same,GI50,RPMI-8226 leukemia,3.91 µM
same,TGI,RPMI-8226 leukemia,> 100 µM
same,GI50,NCI-H522 lung,2.09 µM
same,TGI,NCI-H522 lung,6.38 µM
same,GI50,TK-10 renal,9.16 µM
same,TGI,TK-10 renal,32.3 µM
same,GI50,SK-MEL-5 melanoma,4.1 µM
same,TGI,SK-MEL-5 melanoma,19.4 µM
same,GI50,MDA-MB-231 breast,2.73 µM
same,TGI,MDA-MB-231 breast,8.19 µM
same,GI50,OVCAR-4 ovarian,1.83 µM
same,TGI,OVCAR-4 ovarian,3.54 µM
same,GI50,SNB-19 CNS,4.56 µM
same,TGI,SNB-19 CNS,38.3 µM
same,GI50,HCT-15 colon,1.93 µM
same,TGI,HCT-15 colon,4.14 µM
same,GI50,U251 CNS,2.06 µM
same,TGI,U251 CNS,4.18 µM
same,GI50,SR leukemia,4.69 µM
same,TGI,SR leukemia,> 100 µM
same,GI50,IGROV1 ovarian,4.51 µM
same,TGI,IGROV1 ovarian,60.8 µM
same,GI50,MOLT-4 leukemia,3.26 µM
same,TGI,MOLT-4 leukemia,> 100 µM
same,GI50,DU-145 prostate,3.61 µM
same,TGI,DU-145 prostate,30.9 µM
same,GI50,HT29 colon,3.52 µM
same,TGI,HT29 colon,50.8 µM
same,GI50,SF-295 CNS,5.01 µM
same,TGI,SF-295 CNS,20.6 µM
same,GI50,T-47D breast,1.83 µM
same,TGI,T-47D breast,5.97 µM
same,GI50,SF-539 CNS,1.98 µM
same,TGI,SF-539 CNS,4.22 µM
same,GI50,ACHN renal,2.9 µM
same,TGI,ACHN renal,8.71 µM
same,GI50,HOP-62 NSCLC,2.61 µM
same,TGI,HOP-62 NSCLC,9.06 µM
same,GI50,A498 renal,2.22 µM
same,TGI,A498 renal,4.94 µM
same,GI50,MALME-3M melanoma,1.74 µM
same,TGI,MALME-3M melanoma,3.37 µM
same,GI50,HCT-116 colon,1.88 µM
same,TGI,HCT-116 colon,3.75 µM
same,GI50,SN12C renal,1.93 µM
same,TGI,SN12C renal,4.42 µM
same,GI50,OVCAR-3 ovarian,1.81 µM
same,TGI,OVCAR-3 ovarian,3.53 µM
same,GI50,RXF 393 renal,1.67 µM
same,TGI,RXF 393 renal,3.29 µM
same,GI50,NCI-H226 lung,3 µM
same,TGI,NCI-H226 lung,12.4 µM
same,GI50,OVCAR-8 ovarian,1.86 µM
same,TGI,OVCAR-8 ovarian,3.71 µM
same,GI50,HL-60(TB) leukemia,> 100 µM
same,TGI,HL-60(TB) leukemia,> 100 µM
same,GI50,MCF7 breast,2.53 µM
same,TGI,MCF7 breast,16.7 µM
same,GI50,A549 NSCLC,2.08 µM
same,TGI,A549 NSCLC,5.09 µM
same,GI50,NCI/ADR-RES ovarian,1.92 µM
same,TGI,NCI/ADR-RES ovarian,4.03 µM
same,GI50,BT-549 breast,3.21 µM
same,TGI,BT-549 breast,28.3 µM
same,GI50,MDA-MB-435,5.86 µM
same,TGI,MDA-MB-435,> 100 µM
same,GI50,SF-268 CNS,4.41 µM
same,TGI,SF-268 CNS,> 100 µM
same,GI50,SK-MEL-2 melanoma,3.14 µM
same,TGI,SK-MEL-2 melanoma,34.4 µM
same,GI50,LOX IMVI melanoma,1.9 µM
same,TGI,LOX IMVI melanoma,4.08 µM
same,GI50,KM12 colon,3.15 µM
same,TGI,KM12 colon,> 100 µM
same,GI50,NCI-H23 lung,2.12 µM
same,TGI,NCI-H23 lung,5.62 µM
same,GI50,SNB-75 CNS,3.36 µM
same,TGI,SNB-75 CNS,17.5 µM
same,GI50,UO-31 renal,3.3 µM
same,TGI,UO-31 renal,16.3 µM
same,GI50,CCRF-CEM leukemia,4.1 µM
same,TGI,CCRF-CEM leukemia,> 100 µM
same,GI50,786-0 renal,1.6 µM
same,TGI,786-0 renal,3.09 µM
same,GI50,EKVX NSCLC,2.7 µM
same,TGI,EKVX NSCLC,21.4 µM
same,GI50,MDA-MB-468 breast,1.45 µM
same,TGI,MDA-MB-468 breast,3.24 µM
same,GI50,HS 578T breast,4.54 µM
same,TGI,HS 578T breast,99.7 µM
same,GI50,OVCAR-5 ovarian,3.09 µM
same,TGI,OVCAR-5 ovarian,17 µM
same,GI50,UACC-257 melanoma,6.52 µM
same,TGI,UACC-257 melanoma,> 100 µM
same,GI50,K-562 leukemia,3.49 µM
same,TGI,K-562 leukemia,> 100 µM
same,GI50,NCI-H460 lung,2.68 µM
same,TGI,NCI-H460 lung,6.25 µM
same,GI50,COLO 205 colon,3.1 µM
same,TGI,COLO 205 colon,> 100 µM
same,GI50,SK-OV-3 ovarian,3.07 µM
same,TGI,SK-OV-3 ovarian,19.7 µM
